Assay results reported in patent US20030215462A1, “Use of UGT inhibitors to increase bioavailability” (priority 2001, published 2003).
Several values for one entry are separate records, joined by “and”; a condition that tells them apart may be missing. Identical values can stand only once.

Columns and labels:
UGT1A1 [1] = target: T1, UGT1A1 (Homo sapiens, UniProt P22309)
T1 sequence (P22309 26-533): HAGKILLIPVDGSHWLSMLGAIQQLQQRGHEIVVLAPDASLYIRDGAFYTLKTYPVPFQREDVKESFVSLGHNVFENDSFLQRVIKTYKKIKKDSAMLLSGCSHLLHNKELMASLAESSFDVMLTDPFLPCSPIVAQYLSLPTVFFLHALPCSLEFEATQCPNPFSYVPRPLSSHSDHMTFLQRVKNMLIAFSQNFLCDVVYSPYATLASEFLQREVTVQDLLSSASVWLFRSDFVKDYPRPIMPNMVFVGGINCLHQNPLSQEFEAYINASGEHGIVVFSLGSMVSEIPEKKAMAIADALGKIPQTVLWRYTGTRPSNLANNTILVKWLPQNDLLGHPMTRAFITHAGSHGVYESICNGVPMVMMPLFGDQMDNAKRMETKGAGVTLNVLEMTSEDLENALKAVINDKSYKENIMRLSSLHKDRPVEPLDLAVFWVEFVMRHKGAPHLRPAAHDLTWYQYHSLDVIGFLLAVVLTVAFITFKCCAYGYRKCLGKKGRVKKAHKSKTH

UGT1A9 [2] = target: T2, UGT1A9 (Homo sapiens, UniProt O60656); conditions: 30 min, 100 μM, pH 7.5
T2 sequence (O60656 26-530): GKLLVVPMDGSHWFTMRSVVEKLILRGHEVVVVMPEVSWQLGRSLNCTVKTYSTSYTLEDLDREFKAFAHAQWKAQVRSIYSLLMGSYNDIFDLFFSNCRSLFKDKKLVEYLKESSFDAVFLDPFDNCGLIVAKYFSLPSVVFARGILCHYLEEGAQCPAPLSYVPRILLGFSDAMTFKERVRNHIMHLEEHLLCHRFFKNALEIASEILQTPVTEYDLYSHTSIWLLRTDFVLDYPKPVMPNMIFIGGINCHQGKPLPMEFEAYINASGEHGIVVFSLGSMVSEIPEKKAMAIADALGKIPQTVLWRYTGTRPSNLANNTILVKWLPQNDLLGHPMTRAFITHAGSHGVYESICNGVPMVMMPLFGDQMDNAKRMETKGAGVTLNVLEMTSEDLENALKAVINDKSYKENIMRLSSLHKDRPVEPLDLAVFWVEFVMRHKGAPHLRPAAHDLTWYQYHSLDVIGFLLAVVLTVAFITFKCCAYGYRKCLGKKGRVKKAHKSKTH

UGT1A10 [3] = target: T3, UGT1A10 (Homo sapiens, UniProt Q9HAW8)
T3 sequence (Q9HAW8 26-530): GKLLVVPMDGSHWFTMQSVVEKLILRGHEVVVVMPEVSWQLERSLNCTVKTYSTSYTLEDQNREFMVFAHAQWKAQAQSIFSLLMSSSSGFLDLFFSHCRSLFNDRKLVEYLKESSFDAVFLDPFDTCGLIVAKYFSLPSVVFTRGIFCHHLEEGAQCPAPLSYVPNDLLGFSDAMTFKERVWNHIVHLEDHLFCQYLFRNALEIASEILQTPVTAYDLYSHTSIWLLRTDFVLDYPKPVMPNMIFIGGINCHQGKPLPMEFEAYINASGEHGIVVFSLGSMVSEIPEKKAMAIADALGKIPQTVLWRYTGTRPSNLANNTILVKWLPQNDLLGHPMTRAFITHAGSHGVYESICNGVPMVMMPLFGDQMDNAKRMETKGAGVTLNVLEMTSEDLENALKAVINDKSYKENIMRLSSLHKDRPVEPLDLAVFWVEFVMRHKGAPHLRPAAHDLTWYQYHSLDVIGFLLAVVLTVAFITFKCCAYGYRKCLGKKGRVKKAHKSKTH

UGT2B15 [4] = target: T4, UGT2B15 (Homo sapiens, UniProt P54855)
T4 sequence (P54855 24-530): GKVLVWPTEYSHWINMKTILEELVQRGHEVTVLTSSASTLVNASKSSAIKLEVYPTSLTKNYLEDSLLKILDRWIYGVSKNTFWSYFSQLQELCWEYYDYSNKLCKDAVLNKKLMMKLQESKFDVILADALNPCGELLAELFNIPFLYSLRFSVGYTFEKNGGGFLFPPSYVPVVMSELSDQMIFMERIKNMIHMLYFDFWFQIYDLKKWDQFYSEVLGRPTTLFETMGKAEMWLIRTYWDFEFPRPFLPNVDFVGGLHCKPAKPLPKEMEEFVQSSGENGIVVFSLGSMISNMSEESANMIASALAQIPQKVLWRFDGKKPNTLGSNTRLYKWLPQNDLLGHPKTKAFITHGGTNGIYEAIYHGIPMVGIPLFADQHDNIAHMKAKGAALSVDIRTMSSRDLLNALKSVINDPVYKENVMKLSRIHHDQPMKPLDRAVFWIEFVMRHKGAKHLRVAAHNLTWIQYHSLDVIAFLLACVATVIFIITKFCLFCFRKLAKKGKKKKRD

UGT1A1 [5] = target: T1, UGT1A1; experiment: Substrate glucuronidation by recombinant UGT1A1; conditions: for 7-HFC glucuronidation rate: 7-HFC 50 μM
UGT1A8 = target: T5, UGT1A8 (Homo sapiens, UniProt Q9HAW9); experiment: Substrate glucuronidation by recombinant UGT1A8; conditions: UGT1A8 Supersomes 250 μg/ml; 7-HFC 50 μM
T5 sequence (Q9HAW9 26-530): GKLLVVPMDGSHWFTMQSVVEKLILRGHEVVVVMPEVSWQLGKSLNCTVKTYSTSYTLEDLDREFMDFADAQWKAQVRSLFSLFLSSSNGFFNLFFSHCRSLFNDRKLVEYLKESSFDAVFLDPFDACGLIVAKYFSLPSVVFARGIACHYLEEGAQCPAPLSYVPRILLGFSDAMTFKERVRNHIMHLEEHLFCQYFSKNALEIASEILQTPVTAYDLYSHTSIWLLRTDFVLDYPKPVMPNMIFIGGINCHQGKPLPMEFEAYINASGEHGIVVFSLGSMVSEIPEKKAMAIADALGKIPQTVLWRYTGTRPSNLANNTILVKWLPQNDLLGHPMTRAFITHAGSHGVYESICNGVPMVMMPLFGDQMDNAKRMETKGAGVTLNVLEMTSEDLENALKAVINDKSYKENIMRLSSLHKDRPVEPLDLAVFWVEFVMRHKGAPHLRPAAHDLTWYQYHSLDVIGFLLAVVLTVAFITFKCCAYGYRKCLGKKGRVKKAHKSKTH

UGT1A9 [6] = target: T2, UGT1A9; experiment: Substrate glucuronidation by recombinant UGT1A9
UGT1A10 [7] = target: T3, UGT1A10; experiment: Substrate glucuronidation by recombinant UGT1A10; conditions: 7-HFC 50 μM
UGT2B15 [8] = target: T4, UGT2B15; experiment: Substrate glucuronidation by recombinant UGT2B15; conditions: UGT2B15 Supersomes 250 μg/ml; 7-HFC 50 μM
[9] = test system: pooled human jejunum microsomes; experiment: Glucuronidation of UGT substrates by pooled human jejunum microsomes; conditions: human jejunum microsomes (table footnote)
[10] = healthy volunteers, concomitant diflunisal; cited from earlier work

For `CC(CCc1ccccc1)NCC(O)c1ccc(O)c(C(N)=O)c1` (centres unmarked) [Labetalol, labetalol], the “labetalol metabolism, in words” value (UGT1A1 [1]) was “No detectable metabolism was observed”, the LG1/LG2 (UGT1A9 [2]) was 0.8 and the “labetalol metabolite LG1, peak area normalized to internal standard” value (UGT1A9 [2]) was 38 (1). The “labetalol metabolite LG2, peak area normalized to internal standard” value (UGT1A9 [2]) was 49 (1), the “labetalol metabolism, in words” value (UGT1A10 [3]) was “No detectable metabolism was observed” and the “labetalol metabolism, in words” value (UGT2B15 [4]) was “No detectable metabolism was observed”.

In the case of `O=c1cc(C(F)(F)F)c2ccc(O)cc2o1` [7-HFC, 7-hydroxy-4-(trifluoromethyl)coumarin], the “7-HFC glucuronidation rate in Panvera Bacculosomes as % of Gentest Supersomes” value (UGT1A1 [5]; UGT1A1) is reported as 42%, the 7-HFC glucuronidation rate (UGT1A1 [5]; UGT1A1 Bacculosomes 250 μg/ml) is reported as 346 ± 12 pmol/min/mg protein and the 7-HFC glucuronidation rate (UGT1A1 [5]; UGT1A1 Supersomes 250 μg/ml) is reported as 816 ± 70 pmol/min/mg protein and 929 ± 7 pmol/min/mg protein. For the same molecule, the 7-HFC glucuronidation rate (UGT1A8) was 486 ± 5 pmol/min/mg protein, the “7-HFC glucuronidation rate as % of the rate for UGT1A6” value (UGT1A9 [6]; UGT1A9) was 81% and the 7-HFC glucuronidation rate (UGT1A9 [6]; UGT1A9 Supersomes 250 μg/ml, 7-HFC 50 μM) was 3976 ± 41 pmol/min/mg protein. It also gave a 7-HFC glucuronidation rate (UGT1A10 [7]; UGT1A10 Bacculosomes 250 μg/ml) of 553 ± 40 pmol/min/mg protein, a 7-HFC glucuronidation rate (UGT1A10 [7]; UGT1A10 Supersomes 250 μg/ml) of 460 ± 2 pmol/min/mg protein and a 7-HFC glucuronidation rate (UGT2B15 [8]) of 976 ± 17 pmol/min/mg protein. For the same molecule, the 7-HFC metabolism rate [9] was 6,829 ± 61 pmol/min/mg.

In the case of `O=C(O)c1cc(-c2ccc(F)cc2F)ccc1O` [Diflunisal, reference compound], the “decrease in indomethacin clearance” value [10] is listed as 70%.
